Measurements as given in patent publication US20040063790A1, “Methods for inhibition of angiogenesis” (The Scripps Research Institute, priority 1996, published 2004).
[ ]: non-standard residue; d: D form.

What was measured:
[1] = test system: αvβ3-expressing CS-1 cells; assay: Inhibition of cell attachment assay; format: cell-based, hamster
Procedure: As one means to determine integrin receptor specificity of the antagonists of this invention, inhibition of cell attachment assays were performed as described below.
Briefly, CS-1 hamster melanoma cells lacking expression of αvβ3 and αvβ5 were first transfected with an plasmid for expressing the […] as previously described by Filardo et al., J. Cell Biol., 130:441-450 (1995). Specificity of potential αvβ3 antagonists was determined by the ability to block the binding of αvβ3-expressing CS-1 cells to VN or laminin coated plates. As an example of a typical assay, the wells were first coated with 10 μg/ml substrate overnight. After rinsing and blocking with 1% heat-denatured BSA in PBS at room temperature for 30 minutes, peptide 85189 (SEQ ID NO: 15) over a concentration range of 0.0001 μM to 100 μM, was separately mixed with CS-1 cells for applying to wells with a cell number of 50, 000 cells/well. After a 10-15 minute incubation at 37° C., the solution containing the cells and peptides was discarded. The number of attached cells was then determined following staining with 1% crystal violet. Cell associated crystal violet was eluted by the addition of 100 microliters (μl) of 10% acetic acid. Cell adhesion was quantified by measuring the optical density of the eluted crystal violet at a wave length of 600 nm.

[2] = test system: tumor-induced angiogenesis; assay: CAM assay, tumor-induced angiogenesis, intravenous application; format: in vivo, chick; conditions: intravenous injection
Procedure: Angiogenesis was induced in the CAM assay system by direct apposition of a tumor fragment on the CAM. Preparation of the chick embryo CAM was identical to the procedure described above. Instead of a filter paper disk, a 50 milligram (mg) to 55 mg in weight fragment of one of human melanoma tumor M21-L, human lung carcinoma tumor UCLAP-3, human pancreatic carcinoma cell line FG (Cheresh et al., Cell 58:945-953, 1989), or human laryngeal carcinoma cell line HEp3, all of which are αvβ3 negative tumors, was placed on the CAM in an area originally devoid of blood vessels.
The M21-L human melanoma cell line, UCLAP-3 human lung carcinoma cell line, FG pancreatic carcinoma cell line, or HEp3 human laryngeal carcinoma cell line, all αvβ3 negative, were used to grow the solid human tumors on the CAMs of chick embryos. A single cell suspension of 8×10^6 M21-L, UCLAP-3, and FB or 5×10^5 HEp3 cells was first applied to the CAMs in a total volume of 30 μl of sterile HBSS. The windows were sealed with tape and the embryos were incubated for 7 days to allow growth of human tumor lesions. At the end of 7 days, now a 17-day embryo, the tumors were resected from the CAMs and trimmed free of surrounding CAM tissue. […]
The effects of peptide exposure to tumor-induced vasculature in the CAM assay system was also assessed. […]

vascular cell apoptosis = assay: Apoptosis in bFGF-treated CAM, Apop Tag staining; format: in vivo, chick; conditions: 300 μg/ml; treated two days prior; versus PBS or control peptide 69601
Procedure: CAM assays with growth factor-induced angiogenesis, as described in Example 4A, were also performed with the synthetic peptides of this invention to determine the effect of cyclic peptides on apoptosis. The peptides cyclo-RGDfV (66203) and cyclo-RADfV (69601) were prepared as described in Example 1. The peptide solutions or PBS were injected into the CAM preparation at a concentration of 300 μg/ml. At 24 and 48 hours, the filter paper and surrounding CAM tissue was dissected and stained with the Apop Tag to detect apoptosis.

FgM tumors = assay: Tumor regression in the CAM assay, FgM; format: in vivo, chick; conditions: 100 μg intravenously 18 hours post-implantation; FIG. 17
Procedure: (§1) As described in Example 5, in addition to visually assessing the effect of anti-αvβ3 antagonists on growth factor or tumor induced angiogenesis, the effect of the antagonists was also assessed by measuring any changes to the tumor mass following exposure. For this analysis, the tumor-induced angiogenesis CAM assay system was prepared as described in Example 4C. At the end of the 7 day incubation period, the resulting tumors were resected from the CAMs and trimmed free of any residual CAM tissue, washed with 1 ml of phosphate buffer saline and wet weights were determined for each tumor.
(§2) To further assess the effects of αvβ3 antagonists on tumor growth and survival, fragments of human melanoma and fragments of carcinomas of the lung, pancreas, and larynx were placed on CAMS of 10-day old embryos as described in Example 3A.
(§3) Additional tumor regression assays were performed with the αvβ3-reactive peptide 85189 (SEQ ID NO: 15) against 69601 as a control. The assays were performed as described above with the exception that 100 μg of peptide was intravenously injected into the CAM at 18 hours post-implantation. After 48 hours more, the tumors were then resected and wet weights were obtained.

[3] = test system: growth factor-induced corneal angiogenesis; assay: In vivo rabbit eye model assay; conditions: both vFGF and VEGF stimulated eyes
Description: The effect of anti-αvβ3 antagonists on growth factor-induced angiogenesis can be observed in naturally transparent structures as exemplified by the cornea of the eye. […] Stimulators of angiogenesis, such as bFGF, when applied to the cornea induce the growth of new blood vessels from the rim of the cornea. Antagonists of angiogenesis, applied to the cornea, inhibit the growth of new blood vessels from the rim of the cornea. Thus, the cornea undergoes angiogenesis through an invasion of endothelial cells from the rim of the cornea into the tough collagen-packed corneal tissue which is easily visible. The rabbit eye model assay therefore provides an in vivo model for the direct observation of stimulation and inhibition of angiogenesis following the implantation of compounds directly into the cornea of the eye.
Each experiment consisted of eight rabbits in which one eye received a pellet comprising 100 nanograms (ng) bFGF and the other eye received a pellet comprising 1 microgram (μg) VEGF. The pellets were inserted into the corneal pocket as described above, and the cytokines subsequently stimulated the growth of new blood vessels into the cornea. […] After 7 days, the cornea were evaluated as described above.

UCLAP-3 tumors = assay: Tumor regression in the CAM assay, UCLAP-3; format: in vivo, chick; conditions: 100 μg intravenously 18 hours post-implantation; FIG. 15
Procedure: as §1, §2, §3

Substance: cyclo (RGDfV) [Peptide 66203]
- inhibition of β3-expressing CS-1 cell adhesion to laminin ([1]; laminin): but not laminin
- inhibition of β3-expressing CS-1 cell adhesion to vitronectin ([1]; vitronectin): inhibited
- inhibition of tumor-induced blood vessel formation [2]: formation of blood vessels was inhibited
- increase in Apop Tag staining (vascular cell apoptosis): 3 to 4 fold

Substance: cyclo (RADfV) (cyclo(RAD[dF]V); SMILES CC(C)[C@@H]1NC(=O)[C@@H](Cc2ccccc2)NC(=O)[C@H](CC(=O)O)NC(=O)[C@H](C)NC(=O)[C@H](CCCNC(=N)N)NC1=O) [Peptide 69601, reference compound]
- effect on tumor weight, FgM (FgM tumors): lack of effect
- corneal blood vessel growth at 7 days [3]: substantial corneal blood vessel growth
- effect on tumor weight, UCLAP-3 (UCLAP-3 tumors): lack of effect
